# In patent USRE48461E1, “Modulation of androgen receptor expression” (Ionis Pharmaceuticals, Inc., priority 2012, dated 2021):
# Tests used:
# Format in all cases: cell-based, human
# [1] = system: TMPRSS2 mRNA; test: TMPRSS2 mRNA levels in LMR20 cells; conditions: with or without DHT/R1881
# Method: LMR20 cells were plated at 1,500 cells per well in phenol red-free medium with CSS.
# [2] = system: TMPRSS2 mRNA; test: Time-course TMPRSS2 expression in C4-2B cells
# Method: C4-2B cells were plated at 1,000 cells per well in complete medium. […] ISIS 549148 was included as a negative control. […] After a treatment period of 8 hours, 24 hours, and 48 hours, AR expression was measured with primer probe set hAR-LTS00943. Results are presented in Tables 70-72 as percent expression of AR, relative to non-treated cells.
# Expression analysis of prostate-specific antigen (PSA) and TMPRSS2 were also analyzed. Results are presented in Tables 73-75 as percent inhibition of PSA expression and Tables 76-78 as percent inhibition of TMPRSS2 expression, relative to non-treated cells.
# [3] = system: full length AR mRNA; test: Full-length AR RNA in VCaP cells (complete, CSS+DHT medium); conditions: RNAiMax, 48 hrs
# Method: Cells were plated at 10,000 cells per well. […] After an incubation period of 48 hrs, RNA levels of full length AR, the V7 variant, PSA and TMPRSS2 were measured.
# After an incubation period of 48 hrs, RNA levels of full length AR, the V7 variant, PSA and TMPRSS2 were measured. The data is presented in Tables 108 expressed as percent expression of gene levels compared to the untreated control.
# Cells were plated at 15,000 cells per well and cultured in CSS media for 16 hours. […] After 4 hrs, 1 nM DHT was added. […] After an incubation period of 48 hrs, RNA levels of AR, PSA and TMPRSS2 were measured.
# [4] = system: 22RV1 cells; test: 22RV1 cell proliferation with/without DHT (MTT); conditions: 5 days; for Percent inhibition of 22RV1 cell proliferation: RNAiMAX
# Method: 22RV1cells were plated at 1,500 cells per well. […] Separate sets of cells, also treated with each of the antisense oligonucleotides, were treated with DHT added on day 1 at a final concentration of 1 nM. After a treatment period of 5 days, the proliferative ability of the cancer cells was measured using the standard MTT assay. Results are presented in Table 69 as percent inhibition of proliferation, relative to non-treated cells.
# [5] = system: PSA mRNA; test: PSA expression in LNCaP cells (complete, CSS+DHT medium); conditions: for Percent inhibition of PSA expression in LNCaP cells cultured in CSS + DHT medium: CSS + DHT (1 nM) medium, 48 hrs; for Percent inhibition of PSA expression in LNCaP cells cultured in complete medium: 48 hours
# Method: Cells were plated at 1,000 cells per well. […] ISIS 549148 was included as a negative control. […] After an incubation period of 48 hours, RNA levels of AR, PSA and TMPRSS2 were measured.
# Cells were plated at 2,000 cells per well and cultured in phenol red-free RPMI supplemented with 5% charcoal stripped serum (Gibco) media for 16 hours. […] ISIS 549148 was included as a negative control. […] After an incubation period of 4 hrs, DHT was added to the medium to a final concentration of 1 nM as indicated. RNAs were collected 48 hrs later and levels of AR, PSA and TMPRSS2 were measured. In the absence of DHT, AR expression in LNCaP cells was 95%, PSA expression was 7% and TMPRSS2 expression was 24% compared to the untreated control.
# [6] = system: VCaP cells; test: VCaP apoptosis (Caspase-Glo 3/7); conditions: complete medium, 72 hours; for Apoptosis (% untreated control): VCaP cells
# Method: After a treatment period of 72 hours in complete medium, apoptosis of the cancer cells was measured with Caspase-Glo 3/7 assay (Promega). Results are presented in Tables 117 and 118 as percent apoptosis of the cells, relative to non-treated cells.
# [7] = system: 22RV1 cells; test: 22RV1 cell proliferation (Example 32); conditions: 5 days; for Proliferation (% untreated control): 22RV1 cells, complete medium
# Method: After a treatment period of 5 days in complete medium, the proliferative capacity of the cancer cells was measured with using CellTiter 96® AQueous One or CellTiter-Glo® Solution Cell Proliferation kit (Promega), following the manufacturer's instructions. […] Treatment with ISIS oligonucleotides in CSS+DHT medium reduced the proliferative capacity to a greater extent than treatment with MVD-3100. The proliferative capacity of cells cultured in CSS medium without DHT is 12% of untreated control levels.
sequence,measurement,setting,value
"TGATTTAATGGTTGCA [ISIS 569236] (cEt/MOE gapmer chemistry, further chemistry not given here) [targets intron 1]",TMPRSS2 mRNA levels in LMR20 cells,[1],reduced PSA levels and TMPRSS2 more extensively than the LNA gapmer ISIS 554221 or MDV3100
same,Percent inhibition of TMPRSS2 expression compared to the control group in 8 hours,[2]; 0.04 μM,0%
same,Percent inhibition of TMPRSS2 expression compared to the control group in 24 hours,[2]; 0.04 μM,10%
same,Percent inhibition of TMPRSS2 expression compared to the control group in 48 hours,[2]; 0.04 μM,22%
same,Percent inhibition of TMPRSS2 expression compared to the control group in 8 hours,[2]; 0.2 μM,0%
same,Percent inhibition of TMPRSS2 expression compared to the control group in 24 hours,[2]; 0.2 μM,32%
same,Percent inhibition of TMPRSS2 expression compared to the control group in 48 hours,[2]; 0.2 μM,57%
same,Percent inhibition of TMPRSS2 expression compared to the control group in 8 hours,[2]; 1 μM,0%
same,Percent inhibition of TMPRSS2 expression compared to the control group in 24 hours,[2]; 1 μM,57%
same,Percent inhibition of TMPRSS2 expression compared to the control group in 48 hours,[2]; 1 μM,70%
same,Percent inhibition of TMPRSS2 expression compared to the control group in 8 hours,[2]; 5.0 μM,0%
same,Percent inhibition of TMPRSS2 expression compared to the control group in 24 hours,[2]; 5.0 μM,66%
same,Percent inhibition of TMPRSS2 expression compared to the control group in 48 hours,[2]; 5.0 μM,75%
same,TMPRSS2 expression,[2]; time course,reduced PSA and TMPRSS2 expression in the cells relative to the control set at the 24 hr and 48 hr time points
same,Percent inhibition of full-length AR,"[3]; CSS medium, 1.34 nM",23%
same,Percent inhibition of full-length AR,"[3]; CSS medium, 4.0 nM",21%
same,Percent inhibition of full-length AR,"[3]; CSS medium, 13.4 nM",38%
same,Percent inhibition of full-length AR,"[3]; CSS medium, 40 nM",35%
same,Percent inhibition of full-length AR,"[3]; complete medium, 1.34 nM",0%
same,Percent inhibition of full-length AR,"[3]; complete medium, 4.0 nM",41%
same,Percent inhibition of full-length AR,"[3]; complete medium, 13.4 nM",49%
same,Percent inhibition of full-length AR,"[3]; complete medium, 40 nM",74%
same,Percent inhibition of 22RV1 cell proliferation,"[4]; +DHT (1 nM), ASO 1.34 nM",0%
same,Percent inhibition of 22RV1 cell proliferation,"[4]; +DHT (1 nM), ASO 4.0 nM",6%
same,Percent inhibition of 22RV1 cell proliferation,"[4]; +DHT (1 nM), ASO 13.4 nM",32%
same,Percent inhibition of 22RV1 cell proliferation,"[4]; +DHT (1 nM), ASO 40.0 nM",56%
same,22RV1 cell proliferation,[4]; with or without 1 nM DHT,"significantly inhibited prostate cancer cell proliferation even in the presence of AR activator, DHT, compared to the control"
same,Percent inhibition of 22RV1 cell proliferation,"[4]; −DHT, ASO 1.34 nM",0%
same,Percent inhibition of 22RV1 cell proliferation,"[4]; −DHT, ASO 4.0 nM",18%
same,Percent inhibition of 22RV1 cell proliferation,"[4]; −DHT, ASO 13.4 nM",47%
same,Percent inhibition of 22RV1 cell proliferation,"[4]; −DHT, ASO 40.0 nM",64%
same,Percent inhibition of PSA expression in LNCaP cells cultured in CSS + DHT medium,[5]; 0.04 μM,4%
same,Percent inhibition of PSA expression in LNCaP cells cultured in CSS + DHT medium,[5]; 0.2 μM,11%
same,Percent inhibition of PSA expression in LNCaP cells cultured in CSS + DHT medium,[5]; 1 μM,45%
same,Percent inhibition of PSA expression in LNCaP cells cultured in CSS + DHT medium,[5]; 5.0 μM,59%
same,Percent inhibition of PSA expression in LNCaP cells cultured in complete medium,[5]; 0.04 μM,0%
same,Percent inhibition of PSA expression in LNCaP cells cultured in complete medium,[5]; 0.2 μM,19%
same,Percent inhibition of PSA expression in LNCaP cells cultured in complete medium,[5]; 1 μM,63%
same,Percent inhibition of PSA expression in LNCaP cells cultured in complete medium,[5]; 5.0 μM,81%
same,Apoptosis (% untreated control),[6]; 1.34 nM,176 % untreated control
same,Apoptosis (% untreated control),[6]; 4.0 nM,293 % untreated control
same,Apoptosis (% untreated control),[6]; 13.4 nM,402 % untreated control
same,Apoptosis (% untreated control),[6]; 40 nM,581 % untreated control
same,apoptosis of VCaP cells,[6],increased apoptosis of the cells in a dose dependent compared to the control
same,Proliferation (% untreated control),[7]; 1.34 nM,92 % untreated control
same,Proliferation (% untreated control),[7]; 4.0 nM,53 % untreated control
same,Proliferation (% untreated control),[7]; 13.4 nM,20 % untreated control
same,Proliferation (% untreated control),[7]; 40 nM,7 % untreated control
same,proliferation of 22RV1 cells,[7],reduced proliferation of the cells in a dose dependent compared to the control
